Data published in patent publication US20200138802A1, “Aggressive Lipid Lowering Therapy in Coronary Artery Disease” (Kowa Company, Ltd., priority 2018, published 2020).

Tests used:
[1] = Randomized open-label phase 4 trial of pitavastatin 4 mg/day versus 1 mg/day in Japanese patients with stable coronary artery disease; assay type: in vivo, human
Protocol: This study was a prospective, multicenter, randomized, open-label, blinded-endpoint, physician-initiated phase 4 trial designed to investigate whether high-dose statin therapy could reduce CV events in patients with stable CAD as compared with low-dose statin therapy. We hypothesized that aggressive lipid lowering treatment with pitavastatin 4 mg/day would reduce the incidence of the composite endpoint comprised of CV death, non-fatal myocardial infarction (MI), non-fatal ischemic stroke, and unstable angina requiring emergency hospitalization. The control group received pitavastatin 1 mg/day.
Men and women aged 20 to 80 years with clinically evident stable CAD and elevated LDL-C were eligible for this study. CAD was defined as 1) previous ACS, such as acute myocardial infarction or unstable angina; 2) a previous coronary revascularization procedure (PCI or coronary artery bypass grafting (“CABG”)); or 3) atherosclerotic CAD detected by coronary artery angiography with at least 75% stenosis in major epicardial coronary arteries (American Heart Association classification). (30) Patients with elevated LDL-C at entry were defined as (1) patients not receiving chronic lipid-lowering therapy with LDL-C≥140 mg/dL, (2) patients with LDL-C≥100 mg/dL and considered by the attending physician to need lipid-lowering therapy, or (3) patients being treated with lipid-lowering therapy.
Exclusion criteria included (1) any planned coronary revascularization procedure, (2) active malignancy, (3) contraindication for pitavastatin (hypersensitivity to pitavastatin, severe liver disease or hepatic dysfunction, concurrent cyclosporine use, or suspected or confirmed pregnancy or current breastfeeding), (4) severe congestive heart failure (ejection fraction<30% or NYHA class≥3), (5) current hemodialysis, (6) familial hypercholesterolemia, (7) current participation in another clinical trial, (8) current use of any prohibited drug (lipid-lowering drug other than pitavastatin) that could not be discontinued during the study, and (9) any other finding that would make the patient unsuitable for this study in the opinion of the investigators.
Participants were recruited at 733 hospitals in Japan. During screening visits, informed consent and baseline medical history were obtained, and a clinical examination and laboratory testing were performed. Blood samples were collected to determine fasting lipid levels and the patient's standard clinical profile. After discontinuation of all previous lipid-lowering therapies, all eligible patients started receiving treatment with pitavastatin 1 mg/day on an open-label basis for at least 1 month (run-in period). At the end of the run-in period (week 0), those patients with LDL-C levels below 120 mg/dL, measured by a central laboratory using Friedwald's formula, were eligible for randomization. Patients with prior ACS or coronary revascularization could be randomized beyond 3 months after the index event. Randomization was not allowed for patients with poor adherence (less than 50%) for the study drug during the run-in period or for patients with the primary endpoint events during the run-in period.
Patients were randomized in a 1:1 ratio to either pitavastatin 4 mg or pitavastatin 1 mg once daily. Randomized treatment assignment was stratified by 5 factors: 1) institution, 2) prior statin use, 3) age (<65 or ≥65), 4) diabetes, and 5) sex. Patients were to be followed for 3 years, and study visits were scheduled at 6 months for the first visit and every year thereafter. At each visit, information on vital signs, clinical endpoints, adverse events, and concurrent medication was collected. In addition, physical examinations and electrocardiograms were performed and blood specimens were collected at 6 months and every 12 months thereafter for lipid and other laboratory tests. […]

[2] = 4 mg of pitavastatin; cited from earlier work

O=C(O)C[C@H](O)C[C@H](O)/C=C/c1c(C2CC2)nc2ccccc2c1-c1ccc(F)cc1 [pitavastatin]
incidence rates of individual CV events: death from any cause, myocardial infarction, and coronary revascularization results ([1]; 1 mg and 4 mg pitavastatin groups, FIG. 8): positive
LDL-C ([1]; patients converted from 1 mg dose to 4 mg dose of pitavastatin, stable CAD, FIG. 2): statistically significant reduction
HDL-C ([1]; patients converted from 1 mg dose to 4 mg dose of pitavastatin, stable CAD, FIG. 3): numerically superior increase
TG ([1]; patients converted from 1 mg dose to 4 mg dose of pitavastatin, stable CAD, FIG. 4): statistically significant reduction
hs-CGP ([1]; patients converted from 1 mg dose to 4 mg dose of pitavastatin, stable CAD, FIG. 5): statistically significant reduction
primary clinical endpoint (composite of CV death, MI, ischemic stroke and UA) ([1]; patients converted from 1 mg dose to 4 mg dose of pitavastatin, stable CAD, FIG. 6): statistically significant reduction
secondary clinical endpoint (primary endpoint+coronary revascularization) ([1]; patients converted from 1 mg dose to 4 mg dose of pitavastatin, stable CAD, FIG. 7): statistically significant reduction
effect of LDL-C status (≥95 mg/dL or <95 mg/dL) on primary endpoint incidence rates ([1]; subgroup analysis, 1 mg versus 4 mg pitavastatin, FIG. 9): did not affect the results
reduction of LDL-C from baseline [2]: 42.9%
